Laboratory results: patent US12545659B2, “IRAK degraders and uses thereof” (Kymera Therapeutics, Inc., priority 2019, dated 2026)

These compounds were tested against T1, IRAK4 (Homo sapiens, UniProt Q9NWZ3) (assay: IRAK4 MSD Degradation in OCI-LY10). Conditions: OCI-LY10 cells, 4 hrs incubation, read-out: IRAK4 degradation in OCI-LY10 at 4 hrs: DC50.
T1 construct: endogenous in cells; host or cells: OCI-LY10
T1 sequence (Q9NWZ3 1-460): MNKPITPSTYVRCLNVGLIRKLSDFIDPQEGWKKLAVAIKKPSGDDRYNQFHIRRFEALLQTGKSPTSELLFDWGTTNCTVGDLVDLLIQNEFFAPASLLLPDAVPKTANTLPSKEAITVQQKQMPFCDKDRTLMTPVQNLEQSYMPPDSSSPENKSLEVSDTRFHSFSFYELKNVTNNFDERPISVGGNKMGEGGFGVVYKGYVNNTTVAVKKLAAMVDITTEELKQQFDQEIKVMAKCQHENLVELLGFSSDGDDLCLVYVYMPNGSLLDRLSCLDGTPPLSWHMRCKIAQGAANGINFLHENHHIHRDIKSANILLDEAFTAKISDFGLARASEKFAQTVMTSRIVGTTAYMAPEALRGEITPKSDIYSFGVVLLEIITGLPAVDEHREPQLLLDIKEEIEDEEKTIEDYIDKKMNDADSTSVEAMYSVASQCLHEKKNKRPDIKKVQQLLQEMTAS
Format: cell-based
Experimental: Degradation of IRAK4 in OCI-LY10 was quantitatively measured using Meso Scale Discovery technology. […] Compounds were then added to the assay plates with a final top concentration of 1 to 10 μM in a 1:3 dilution series with total of 8 doses. The assay plates were then incubated for 4 to 24 hours at 37° C. under 5% C02. […] To prepare MSD assay plates (Meso Scale Discovery Catalog number L15XA-3), the plates were coated with […] capture antibody (mouse Anti-IRAK4 antibody [2H9], ab119942) in PBS, at 40 μL/well. […] Cell lysates were then added to MSD assay plates and the plates were incubated at room temperature for 1 hour. The plates were then washed 3 times with 150 μL/well TBST buffer and 25 μL/well primary detection antibody (rabbit Anti-IRAK4 antibody [Y279], from Abcam. Catalog number ab32511, 1 μg/mL). The assay plates were then incubated at room temperature for 1 hour, washed 3 times with 150 μL/well TBST buffer and 25 μL/well secondary detection antibody, SULFO-TAG anti-rabbit antibody were added (anti rabbit antibody from Meso Scale Discovery, Catalog number R32AB-1, 1 μg/mL). The assay plates were then incubated at room temperature for 1 hour, washed 3 times with 150 μL/well TBST buffer, and 150 μL/well MSD reading buffer (Meso Scale Discovery catalog number R92TC-2) was added. The plates were then analyzed by a MSD reader (Meso Scale Discovery, Model Quick Plex SQ 120). The data was then analyzed by software Prism 7.0 from GraphPad and the dose-depended IRAK4 degradation were fit using a three-parameter logistic equation to calculate DC50.
The letter codes for IRAK4 […] include: A (<0.05 μM); B (0.05-0.1 μM); C (0.1-0.5 μM); D (0.5-1.0 μM); and E (>1.0 μM).

`Cn1c(=O)n(C2CCC(=O)NC2=O)c2cccc(C#CCCCNC[C@H]3CC[C@H](n4cc5cc(NC(=O)c6cccc(C(F)(F)F)n6)c(C(C)(C)O)cc5n4)CC3)c21` (stereo partly shown) [I-60, N-[2-[4-[[5-[1-(2,6-dioxo-3-piperidyl)-3-methyl-2-oxo-benzimidazol-4-yl]pent-4-ynylamino]methyl]cyclohexyl]-6-(1-hydroxy-1-methyl-ethyl)indazol-5-yl]-6-(trifluoromethyl)pyridine-2-carboxamide] and `Cn1c(=O)n(C2CCC(=O)NC2=O)c2ccc(C#CCCCNC[C@H]3CC[C@H](n4cc5cc(NC(=O)c6cccc(C(F)(F)F)n6)c(C(C)(C)O)cc5n4)CC3)cc21` (stereo partly shown) [I-61, N-[2-[4-[[5-[1-(2,6-dioxo-3-piperidyl)-3-methyl-2-oxo-benzimidazol-5-yl]pent-4-ynylamino]methyl]cyclohexyl]-6-(1-hydroxy-1-methyl-ethyl)indazol-5-yl]-6-(trifluoromethyl)pyridine-2-carboxamide] cannot be ordered by DC50: < 50 nM for the first, < 50 nM for the second.

`Cn1c(=O)n(C2CCC(=O)NC2=O)c2cccc(C[C@H]3CC[C@H](N(C)C[C@H]4CC[C@H](n5cc6cc(NC(=O)c7cccc(C(F)(F)F)n7)c(C(C)(C)O)cc6n5)CC4)CC3)c21` (stereo partly shown) [I-62] and `CN(C[C@H]1CC[C@H](n2cc3cc(NC(=O)c4cccc(C(F)(F)F)n4)c(C(C)(C)O)cc3n2)CC1)C1CCC2(CC1)CC(Cc1cccc3c1n(C)c(=O)n3C1CCC(=O)NC1=O)C2` (stereo partly shown) [I-74] cannot be ordered by DC50: < 50 nM for the first, < 50 nM for the second.

`Cn1c(=O)n(C2CCC(=O)NC2=O)c2cccc(CN3CCC(OC4CCN(C[C@H]5CC[C@H](n6cc7cc(NC(=O)c8cccc(C(F)(F)F)n8)c(C(C)(C)O)cc7n6)CC5)CC4)CC3)c21` (stereo partly shown) [I-66] and `Cn1c(=O)n(C2CCC(=O)NC2=O)c2cccc(CC3CCN(C[C@H]4CC[C@H](n5cc6cc(NC(=O)c7cccc(C(F)(F)F)n7)c(C(F)F)cc6n5)CC4)CC3)c21` (stereo partly shown) [I-72] cannot be ordered by DC50: < 50 nM for the first, < 50 nM for the second.

`CN(CCCC#Cc1ccc2c(c1)n(C)c(=O)n2C1CCC(=O)NC1=O)C[C@H]1CC[C@H](n2cc3cc(NC(=O)c4cccc(C(F)(F)F)n4)c(C(C)(C)O)cc3n2)CC1` (stereo partly shown) [I-67, N-(2-((1r,4r)-4-(((5-(1-(2,6-dioxopiperidin-3-yl)-3-methyl-2-oxo-2,3-dihydro-1H-benzo[d]imidazol-5-yl)pent-4-yn-1-yl)(methyl)amino)methyl)cyclohexyl)-6-(2-hydroxypropan-2-yl)-2H-indazol-5-yl)-6-(trifluoromethyl)picolinamide] and `CN(C[C@H]1CC[C@H](n2cc3cc(NC(=O)c4cccc(C(F)(F)F)n4)c(C(C)(C)O)cc3n2)CC1)C1CCN(c2ccc3c(c2)n(C)c(=O)n3C2CCC(=O)NC2=O)CC1` (stereo partly shown) [I-75] cannot be ordered by DC50: < 50 nM for the first, < 50 nM for the second.

Compared with `Cn1c(=O)n(C2CCC(=O)NC2=O)c2cccc(C[C@H]3CC[C@H](N(C)C[C@H]4CC[C@H](n5cc6cc(NC(=O)c7cccc(C(F)(F)F)n7)c(C(F)F)cc6n5)CC4)CC3)c21` (stereo partly shown) [I-73], `CN(C[C@H]1CC[C@H](n2cc3cc(NC(=O)c4cccc(C(F)(F)F)n4)c(C(C)(C)O)cc3n2)CC1)C1CCN(c2cccc3c2n(C)c(=O)n3C2CCC(=O)NC2=O)CC1` (stereo partly shown) [I-80] is lower in DC50: 50 to 100 nM for the first, < 50 nM for the second.

Compared with `Cn1c(=O)n(C2CCC(=O)NC2=O)c2cccc(CCC3CC4(CCN(C[C@H]5CC[C@H](n6cc7cc(NC(=O)c8ccccn8)c(C(C)(C)O)cc7n6)CC5)CC4)C3)c21` (stereo partly shown) [I-81], `CN(C[C@H]1CC[C@H](n2cc3cc(NC(=O)c4ccccn4)c(C(C)(C)O)cc3n2)CC1)C1CCN(c2cccc3c2n(C)c(=O)n3C2CCC(=O)NC2=O)CC1` (stereo partly shown) [I-84] is lower in DC50: 50 to 100 nM for the first, < 50 nM for the second.

Compared with `CN(C[C@H]1CC[C@H](n2cc3cc(NC(=O)c4ccccn4)c(C(C)(C)O)cc3n2)CC1)C1CCN(c2ccc3c(c2)n(C)c(=O)n3C2CCC(=O)NC2=O)CC1` (stereo partly shown) [I-82], `CN(C[C@H]1CC[C@H](n2cc3cc(NC(=O)c4ccccn4)c(C(C)(C)O)cc3n2)CC1)C1CCN(c2ccc3c(c2)n(C2CCC(=O)NC2=O)c(=O)n3C)CC1` (stereo partly shown) [I-86] is higher in DC50: < 50 nM for the first, 500 to 1000 nM for the second.

First: CN(C[C@H]1CC[C@H](n2cc3cc(NC(=O)c4cccc(C(F)(F)F)n4)c(C(C)(C)O)cc3n2)CC1)C1CCN(c2ccc3c(c2)n(C2CCC(=O)NC2=O)c(=O)n3C)CC1 (stereo partly shown) [I-83]
Second: CN(CCCO[C@H]1C[C@H](Cc2cccc3c2n(C)c(=O)n3C2CCC(=O)NC2=O)C1)C[C@H]1CC[C@H](n2cc3cc(NC(=O)c4cccc(C(F)(F)F)n4)c(C(C)(C)O)cc3n2)CC1 (stereo partly shown) [I-85]
The DC50 of the first is higher: 500 to 1000 nM for the first, < 50 nM for the second.

Same assay, conditions: OCI-LY10 cells, 24 hrs incubation, read-out: IRAK4 degradation in OCI-LY10 at 24 hrs: DC50

First: CN(C[C@H]1CC[C@H](n2cc3cc(NC(=O)c4cccc(C(C)(C)F)n4)c(C(C)(C)O)cc3n2)CC1)[C@H]1CC[C@H](CNc2cccc3c2C(=O)N(C2CCC(=O)NC2=O)C3=O)CC1 (stereo partly shown) [I-58]
Second: COc1cc2nn([C@H]3CC[C@H](CN(C)[C@H]4CC[C@H](CNc5cccc6c5C(=O)N(C5CCC(=O)NC5=O)C6=O)CC4)CC3)cc2cc1NC(=O)c1cccc(C(C)(C)F)n1 (stereo partly shown) [I-90]
The DC50 of the first is lower: 50 to 100 nM for the first, 100 to 500 nM for the second.

First: CC(C)(O)c1cc2nn([C@H]3CC[C@H](CN4CCC(COCCCNc5cccc6c5C(=O)N(C5CCC(=O)NC5=O)C6=O)CC4)CC3)cc2cc1NC(=O)c1cccc(C(C)(C)F)n1 (stereo partly shown) [I-59]
Second: CC(C)(O)c1cc2nn([C@H]3CC[C@H](CN4CCO[C@H](CCCNc5cccc6c5C(=O)N(C5CCC(=O)NC5=O)C6=O)C4)CC3)cc2cc1NC(=O)c1cccc(C(F)(F)F)n1 (stereo partly shown) [I-64]
The DC50 of the first is higher: 50 to 100 nM for the first, < 50 nM for the second.

Compared with `CC(C)(O)c1cc2nn([C@H]3CC[C@H](CN4CCO[C@@H](CCNc5cccc6c5C(=O)N(C5CCC(=O)NC5=O)C6=O)C4)CC3)cc2cc1NC(=O)c1cccc(C(F)(F)F)n1` (stereo partly shown) [I-65], `COc1cc2nn([C@H]3CC[C@H](CN4CCO[C@@H](CCNc5cccc6c5C(=O)N(C5CCC(=O)NC5=O)C6=O)C4)CC3)cc2cc1NC(=O)c1cccc(C(F)(F)F)n1` (stereo partly shown) [I-71] is higher in DC50: < 50 nM for the first, 50 to 100 nM for the second.

`COc1cc2nn([C@H]3CC[C@H](CN4CCO[C@H](CCCNc5cccc6c5C(=O)N(C5CCC(=O)NC5=O)C6=O)C4)CC3)cc2cc1NC(=O)c1cccc(C(F)(F)F)n1` (stereo partly shown) [I-68] and `COc1cc2nn([C@H]3CC[C@H](CN(C)CCCN4CCOC(CNc5cccc6c5C(=O)N(C5CCC(=O)NC5=O)C6=O)C4)CC3)cc2cc1NC(=O)c1cccc(C(C)(F)F)n1` (stereo partly shown) [I-91] fall in the same range of DC50: 50 to 100 nM for the first, 50 to 100 nM for the second.

First: COc1cc2nn([C@H]3CC[C@H](CN4CCC(O[C@H]5CC[C@H](CNc6cccc7c6C(=O)N(C6CCC(=O)NC6=O)C7=O)CC5)CC4)CC3)cc2cc1NC(=O)c1cccc(C(F)(F)F)n1 (stereo partly shown) [I-69]
Second: COc1cc2nn([C@H]3CC[C@H](CN(C)C4CCN(c5cccc6c5C(=O)N(C5CCC(=O)NC5=O)C6=O)CC4)CC3)cc2cc1NC(=O)c1cccc(C(F)(F)F)n1 (stereo partly shown) [I-76]
The DC50 of the first is lower: 50 to 100 nM for the first, 100 to 500 nM for the second.

Compared with `CN(CCCO[C@H]1C[C@H](Nc2cccc3c2C(=O)N(C2CCC(=O)NC2=O)C3=O)C1)C[C@H]1CC[C@H](n2cc3cc(NC(=O)Cc4cccc(C(F)(F)F)n4)c(C(C)(C)O)cc3n2)CC1` (stereo partly shown) [I-70], `COc1cc2nn([C@H]3CC[C@H](CN(C)CCCO[C@H]4C[C@H](Nc5ccc6c(c5)C(=O)N(C5CCC(=O)NC5=O)C6=O)C4)CC3)cc2cc1NC(=O)c1cccc(C(F)(F)F)n1` (stereo partly shown) [I-77] is lower in DC50: 500 to 1000 nM for the first, 50 to 100 nM for the second.

`COc1cc2nn([C@H]3CC[C@H](CN4CCC5(CC4)CC(Nc4cccc6c4C(=O)N(C4CCC(=O)NC4=O)C6=O)C5)CC3)cc2cc1NC(=O)c1cccc(C(C)(C)F)n1` (stereo partly shown) [I-78] and `COc1cc2nn([C@H]3CC[C@H](CN4CCC5(CCC(Nc6cccc7c6C(=O)N(C6CCC(=O)NC6=O)C7=O)CC5)CC4)CC3)cc2cc1NC(=O)c1cccc(C(C)(C)F)n1` (stereo partly shown) [I-88] fall in the same range of DC50: 50 to 100 nM for the first, 50 to 100 nM for the second.

First: CN(CCCn1cc2cc(NC(=O)c3cccc(C(F)(F)F)n3)c(C(C)(C)O)cc2n1)C1CCC2(CC1)CC(Nc1cccc3c1C(=O)N(C1CCC(=O)NC1=O)C3=O)C2 (stereo not shown) [I-79]
Second: CC(C)(O)c1cc2c(cnn2CCN2CCC3(CC2)CC(CCNc2cccc4c2C(=O)N(C2CCC(=O)NC2=O)C4=O)C3)cc1NC(=O)c1cccc(C(F)(F)F)n1 (stereo not shown) [I-87]
The DC50 of the first is lower: 100 to 500 nM for the first, 500 to 1000 nM for the second.

`O=C1CCC(N2C(=O)c3cccc(NCCC4CC5(CCN(C[C@H]6CC[C@H](n7cc8cc(NC(=O)c9cccc(C(F)(F)F)n9)c(OC(F)F)cc8n7)CC6)CC5)C4)c3C2=O)C(=O)N1` (stereo partly shown) [I-89] and `COc1cc2nn([C@H]3CC[C@H](CN4CCC5(CC4)CC(CCNc4cccc6c4C(=O)N(C4CCC(=O)NC4=O)C6=O)C5)CC3)cc2cc1NC(=O)c1cccc(C(C)(C)F)n1` (stereo partly shown) [I-92] fall in the same range of DC50: 50 to 100 nM for the first, 50 to 100 nM for the second.
